Source: patent publication US8178579B2, “Dioxanes and uses thereof” (President and Fellows of Harvard College, priority 2001, dated 2012)
Entries after “also recorded” stand apart in the source; their conditions may differ.

Tests used:
[1] = test system: mouse embryonic stem cells; test: genome-wide transcriptional profiling (U74Av2 chip); format: cell-based; conditions: TSA 300 nM, tubacin 2 μM
Method: Gene expression analysis of tubacin, TSA, and DMSO-treated mouse embryonic stem cells were performed according to the Affymetrix protocol using an U74Av2 chip as described in full (K. M. Koeller et al., Chemistry & Biology, 10 (5) (2003) pp. 397-410). Present calls were determined by accompanying software and data analysis, including array normalization and clustering, performed using dChip software [C. Li and W. H. Wong, Genome Biol. 2, 32 (2001); and E. E. Schadt, C. Li, B. Ellis and W. H. Wong, J. Cell Biochem. Suppl. 37, 120 (2001)].

A549 cells = test: mitotic abnormalities by immunofluorescence; format: cell-based, human; conditions: 18 h or 24 h treatment, TSA 10 μM in FIG. 42C
Method: Detection of acetylated α-tubulin and acetylated histones by immunofluorescence was performed as described in Example 6 above. For determining microtubule stability, A549 cells were treated as indicated, fixed in glutaraldehyde, and stained for acetylated α-tubulin and total α-tubulin in antibody dilution buffer (ADB, Tris-buffered saline (TBS), 0.15 M NaCl, 0.02 M Tris-Cl, pH 7.4, with 2% bovine serum albumin and 0.1% Triton-X 100). For cold-depolymerization, cells were incubated at 4° C. or 37° C. for an additional 90 minutes before fixation. For calcium depolymerization, cells were incubated at 37° C. for 10 minutes in a microtubule-stabilizing buffer (0.2% NP-40, 5 mM MgCl2, 2 mM EGTA, 2 M glycerol, 100 mM PIPES, pH 6.8) with and without the addition of CaCl2 (2 mM) before glutaraldehyde fixation. For co-localization experiments, biotubacin (50 μM) treated A549 cells were fixed in 3.7% formaldehyde in TBS and processed as for detecting acetylated α-tubulin (See Example 6 above) with biotubacin detected using streptavidin-TR (1:500). HDAC6 was detected using a rabbit polyclonal antibody (1:250-1:750; C.M.G., unpublished data) under the conditions used to detect acetylated α-tubulin (See Example 6 above). Filamentous actin in HT-1080 cells was detected using TR-conjugated phalloidin (1 μg/mL), and depolymerized actin using FITC-conjugated deoxyribonuclease (10 μg/mL), following fixation in 3.7% formaldehyde in TBS. p58 (1:100) in NIH-3T3 cells was detected after fixation in 3.7% formaldehyde in TBS. Images for these experiments were collected on a Zeiss LSM510 confocal scanning laser microscope at the appropriate wavelengths using the accompanying software and processed with Adobe Photoshop. Deconvoluted serial images of TSA and DMSO treated A549 cells were obtained by taking sections (8μ) on a Zeiss Axioskop 2 microscope using an AxioCam camera and the accompanying software. Rat hippocampal neuronal cultures were fixed at room temperature for 15 min in phosphate-buffered saline (PBS) containing 4% paraformaldehyde. […]

Row | Compound | number of genes with altered expression above a 1.3-fold threshold [1] | mitotic abnormalities (A549 cells)
1 | CC(/C=C/C(=O)NO)=C\[C@@H](C)C(=O)c1ccc(N(C)C)cc1 [TSA, trichostatin A, reference compound] | 232 genes | Mitotic abnormalities in A549 cells induced by TSA; also recorded: caused a significant number of abnormal mitotic cells
2 | O=C(CCCCCCC(=O)Nc1ccc([C@@H]2OC(c3ccc(CO)cc3)C[C@H](CSc3nc(-c4ccccc4)c(-c4ccccc4)o3)O2)cc1)NO (stereo partly shown) [tubacin] | no genes showed a significant alteration in expression | did not increase the frequency of mitotic abnormalities; also recorded: had neither an effect on the number of mitotic cells nor spindle morphology
